The values below come from US11633497B2, “Anti-c-Met antibody drug conjugates” (AbbVie Inc., priority 2021, dated 2023).

Test [1] has as its system A375 cells (malignant melanoma). The test is described as follows: Cell proliferation, CellTiter-Glo luminescence, A375. The format is cell-based. To be noted: Homo sapiens, A-375, read-out: TOP1i Compound Potency EC50, A375. The text has this: Proliferation of Calu-6 cells (lung adenocarcinoma) and A375 cells (malignant melanoma) were quantified using CellTiter-Glo® luminescence.

Test [2] has as its system Calu-6 cells (lung adenocarcinoma). The test is described as follows: Cell proliferation, CellTiter-Glo luminescence, Calu-6. The test is classed as cell-based. To be noted: Homo sapiens. On the procedure:
The effect of TOP1i drugs on cell viability was assessed by monitoring ATP presence for metabolically active cells. Proliferation of Calu-6 cells (lung adenocarcinoma) and A375 cells (malignant melanoma) were quantified using CellTiter-Glo® luminescence.
A general note: Cellular ATP, detected with luciferase, serves as a proxy for viable cell number.

Where two headings read alike, the source gives them in different places.

On to `CC[C@@]1(O)C(=O)OCc2c1cc1n(c2=O)Cc2c-1nc1cc3c(cc1c2C12CC(N)(C1)C2)OCO3` [Example 1G, (7S)-14-(3-aminobicyclo[1.1.1]pentan-1-yl)-7-ethyl-7-hydroxy-2H,10H-[1,3]dioxolo[4,5-g]pyrano[3′,4′:6,7]indolizino[1,2-b]quinoline-8,11(7H,13H)-dione], for which the EC50 (as a rule, the concentration giving half of the maximal effect) in test [1] came out at 0.5 nM; in test [2] (Calu-6, read-out: TOP1i Compound Potency EC50, Calu-6) it was 0.57 nM.

With `CCc1c2c(nc3ccc(O)cc13)-c1cc3c(c(=O)n1C2)COC(=O)[C@]3(O)CC` [SN-38, reference compound], the EC50 in test [2] (Calu-6 cell viability, CellTiter-Glo, read-out: TOP1i Compound Potency EC50, Calu-6) was determined as 6.58 nM.
